Measured values as given in ChEMBL document CHEMBL1140613, “Antituberculosis drugs: ten years of research” (2007).
In brackets after ≈: the same amount, converted by molar mass.

Tested on: Mycobacterium tuberculosis
Experiment: Antituberculosis activity against Mycobacterium tuberculosis
Format: functional

## COc1nc2ccc(Br)cc2cc1[C@@H](c1ccccc1)[C@@](O)(CCN(C)C)c1cccc2ccccc12 [BEDAQUILINE]
  MIC99: 0.06 µg/mL (≈ 0.108 µM)
